What all share (format): cell-based, human
One test has as its system AMPK. Put plainly: Phospho-AMPK ELISA in iPSC-RPE of L-ORD patients and unaffected siblings. Particulars: for p-AMPK levels: 0% serum, 2 mM AICAR or 500 nM BAM15. How it is done:
Thus, in FIG. 16b iPSC-RPE were incubated with recombinant CTRP5 globular form (0.2 μg/mL gCTRP5) for 30 min in the presence (+) and absence (−) of serum to evaluate its role in AMPK signaling.
To better elucidate the ADIPOR1-CTRP5 (receptor-ligand) interaction, […] a ligand dose response curve was performed (in serum free media) by exogenously adding increasing concentrations of recombinant full length CTRP5 (FIG. 16c).
AMPK is a sensitive indicator of the cell energy status and is canonically activated by the levels of AMP or ATP (Hardie and Lin, 2017). Therefore, the AMPK activity (in serum free media) of sibling and patient iPSC-RPE under conditions (increased AMP:ATP ratio) known to stimulate AMPK phosphorylation was characterized (FIG. 16d). iPSC-RPE were incubated in serum deprived media for 5 hours (Park et al., 2009) followed by 30 mins exposure to AICAR (an AMP analogue) or BAM15 (a mitochondrial uncoupler to reduce ATP production).
Metformin treatment consisted of 3 mM metformin added to the apical and basal media for 1½- 2 weeks.
(ELISA stands for enzyme-linked immunosorbent assay.)

A further test relates to ABCA1. The experiment in a line: Bodipy lipid deposits in CC-HS treated Stargardt iRPE with ABCA1 activator. Particulars: 10 μM. The text has this:
115(36): p. 9014-9019]. […] To further understand the ABCA4 driven mechanism in disease pathogenesis, this example focuses on ABCA1- an ABCA4 homolog, involved in cholesterol transport. […] Journal of Biological Chemistry, 2013. 288(48): p. 34414-34426, Tanaka, A. R., et al., Human ABCA1 contains a large amino-terminal extracellular domain homologous to an epitope of Sjögren's Syndrome. Biochemical and biophysical research communications, 2001. 283(5): p. 1019-1025, Storti, F., et al., Impaired ABCA1/ABCG1-mediated lipid efflux in the mouse retinal pigment epithelium (RPE) leads to retinal degeneration. Elife, 2019. 8: p. e45100.]. To determine if both ABCA proteins work through the lipid handling pathway, the effects of modulating ABCA1 expression on changes the disease phenotype in Stargardt RPE cells was observed. An shRNA knockdown of ABCA1 in ABCA4 iRPE cells was performed and the cells were treated with CC-HS. […] (FIG. 34A-G), In contrast, lipid accumulation defects in Stargardt RPE cells were rescued by ABCA1 overactivation using GW3965 (ABCA1 activator) (FIG. 34 H-N).

A further test has as its system iRPE monolayer. Put plainly: Transepithelial resistance (TER) of CC-HS treated iRPE monolayer. Particulars: compstatin 10 μM and PMX053 10 μM used together in CC-HS.
The test system of test [1] is iRPE cells. The experiment in a line: Sub-RPE APOE deposits in CC-HS treated iRPE with receptor blockers. Particulars: concurrent use of compstatin 10 μM (C3aR1 blocker) and PMX053 10 μM (C5aR1 blocker) in CC-HS. The text has this: It was hypothesized that CC-HS triggered AMD cellular phenotypes in iRPE cells are generated by the anaphylatoxin arm of the complement pathway via C3a-C3aR1 and C5a-05aR1 signaling induced intracellular inflammation (Fernandez-Godino and Pierce 2018). RNAseq confirmed the expression of both receptors in iRPE cells with ˜30× higher expression in of C5aR1 as compared to C3aR1 (FIG. 10A). Furthermore, the expression of both receptors increases with CC-HS treatment. Western blot confirmed C3aR1 and C5aR1 receptors localization in the membrane fraction of iRPE cells (FIG. 2A). […] To verify that CC-HS activates C3aR and C5aR signaling in iRPE cells, samples were checked for phosphorylation of AKT and ERK1/2, the two key kinases downstream of C3aR1 and C5aR1 receptors (Hajishengallis and Lambris 2010; Zhu et al 2015 Mol Vis; Busch et al 2017 Front. In Immu.). […] Furthermore, consistent with the predominant apical localization of C3aR1 and C5aR1, apical only treatment of CC-HS caused a 4.5-5×TER drop (p<10^−16), similar to the combined apical/basal treatment of CC-HS. In contrast, basal only treatment of CC-HS resulted only in a 2×TER drop (p<10^−16) (FIG. 2H). To further dissect the role of C5aR1 and C3aR1 signaling in inducing AMD cellular phenotypes in iRPE cells, a depleted sera and receptor blocker strategy was employed. […]

The subject of test [2] is iRPE cells. Put plainly: Proteotoxic high throughput screen (LOPAC) and follow up screen: survival of A23187 treated iRPE. Particulars: seven-point dose curve; A23187 2.5, 5, 10 μM; two iRPE samples. How it is done: 10 μM concentration of A23187 was selected for the drug screening, because it provided a bigger margin for cell death rescue. […] Drug treatment along with the stressor, 10 μM A23187 were added on to iRPE cells matured in 384-well plates and cell death was scored 48 hours later by ATP release using the CellTitrGlo assay.
To distinguish false positives from the real signal, a follow up screen on all of the 45 drugs using iRPE derived from two different iPSC lines was performed. The follow up screen was performed at three different A23187 concentrations (2.5, 5, 10 μM) and with seven different concentrations of drugs ranging from 10 nM-1 mM (FIG. 13D-F). […] Overall, the HTS screen provided two drugs for testing in the in vitro AMD model.

Test [3] deals with iRPE cells. The experiment in a line: A23187 cytotoxicity on iRPE cells (CellTitrGlo ATP release). The text has this:
It was hypothesized that the loss of epithelial phenotype/RPE dedifferentiation is a key AMD cellular phenotype and easier to set up for a high throughput screen. Drugs that would suppress RPE dedifferentiation and recover the epithelial phenotype in cells might also work to rescue additional AMD cellular endophenotypes. Drug screen was designed using a calcium-ionophore A23187 instead of CC-HS serum, for three reasons: 1) CC-HS lost activity in liquid handler tubing used for medium change, likely because active complement proteins were absorbed on the walls of liquid handler tubes; 2) Similar to A23187, CC-HS treatment of iRPE also led to a defect in intracellular calcium homeostasis.
10 μM concentration of A23187 was selected for the drug screening, because it provided a bigger margin for cell death rescue. A commercially available library of pharmaceutically active compounds (LOPAC) with 1280 drugs was used for the screen at two different concentrations 9.2 μM and 46 μM. […]

[4] abbreviates: unaffected siblings, 5h 0% serum, 30 min, 25 ug/mL.

“Also recorded” adds a separate entry of the source.

Description for iRPE monolayer: Lastly, it was checked if the drugs rescued mature RPE phenotype and RPE functionality.

Regarding `Fc1ccccc1Nc1nc2nonc2nc1Nc1ccccc1F` [BAM15], the p-AMPK levels result is “insensitive” in the test on AMPK (L-ORD patient RPE, 30 min) and “further stimulates phosphorylation of AMPK; also recorded: further elevation in AMPK levels” with AMPK (unaffected siblings, 30 min).
On to `O=C(O)Cc1cccc(OCCCN(Cc2cccc(C(F)(F)F)c2Cl)CC(c2ccccc2)c2ccccc2)c1` [GW3965], for which the “intra/sub-RPE bodipy-positive lipid deposits” value with ABCA1 was “rescued”; in the test with ABCA1 (listed as GW 3965), “reduced lipid deposit”.
Consider `NC(=O)c1ncn([C@@H]2O[C@H](CO)[C@@H](O)[C@H]2O)c1N` [AICAR], for which the p-AMPK levels result in the test with AMPK (L-ORD patient RPE, 30 min) is given as “insensitive”; in the test on AMPK (unaffected siblings, 30 min) it was “stimulates further phosphorylation of AMPK; also recorded: further elevation in AMPK levels”.
Regarding `CC[C@H](C)[C@H](N)C(=O)N[C@H]1CSSC[C@@H](C(=O)N[C@H](C(N)=O)[C@@H](C)O)NC(=O)[C@H](CCCN=C(N)N)NC(=O)[C@H](Cc2cnc[nH]2)NC(=O)[C@H](Cc2cnc[nH]2)NC(=O)CNC(=O)[C@H](Cc2c[nH]c3ccccc23)NC(=O)[C@H](CC(=O)O)NC(=O)[C@H](CCC(N)=O)NC(=O)[C@H](C(C)C)NC(=O)[C@H](C(C)C)NC1=O` [compstatin], the “higher iRPE monolayer TER compared to CC-HS treated samples” value in the test with iRPE monolayer was 5 ×. Also, the “lower sub-RPE APOE deposits compared to CC-HS plus vehicle” value in the test with iRPE cells [1] is recorded as 2 ×.
Regarding `COc1cc2ncnc(Nc3cccc(Cl)c3)c2cc1OC` [AG-1478], the “cytoprotective activity in follow up screen” value in the test on iRPE cells [2] is “linear response the seven-point dose curve and reproducibility between two different iRPE samples”.
In the test on iRPE cells [3] (2.5 μM A23187, 48 hours), `CNc1ccc2oc(C[C@H]3O[C@@]4(CC[C@H]3C)O[C@H]([C@H](C)C(=O)c3ccc[nH]3)[C@H](C)C[C@H]4C)nc2c1C(=O)O` [A23187] registered a cell death of 50%. Also, the “toxicity to iRPE cells” value with iRPE cells [3] (96 hours, 2.5, 10, 25 μM A23187) was “completely toxic; also recorded: cytotoxic”.

B1: recombinant full length CTRP5: recombinant full length CTRP5 (protein, UniProt Q9BXJ0 1-243, looked up)
chain: MRPLLVLLLLGLAAGSPPLDDNKIPSLCPGHPGLPGTPGHHGSQGLPGRDGRDGRDGAPGAPGEKGEGGRPGLPGPRGDPGPRGEAGPAGPTGPAGECSVPPRSAFSAKRSESRVPPPSDAPLPFDRVLVNEQGHYDAVTGKFTCQVPGVYYFAVHATVYRASLQFDLVKNGESIASFFQFFGGWPKPASLSGGAMVRLEPEDQVWVQVGVGDYIGIYASIKTDSTFSGFLVYSDWHSSPVFA
modifications: full-length
Take B1: the “change in p-AMPK levels” value in the test with AMPK (L-ORD patient RPE, similar concentrations, serum free) is given as “had no effect on AMPK activity; also recorded: no measurable change”. In the test on AMPK (setting [4]), the p-AMPK level is 47.89%±0.13 and the “reduction in p-AMPK levels” value is reported as 50%.
